According to patent US5215744A, “Methods for the treatment of tumors” (Boehringer Ingelheim GmbH, priority 1987, dated 1993):

Tests used:
[1] = system: antiviral activity in culture medium; test: Antiviral activity (IFN production) in culture medium of treated cells; assay type: cell-based; settings: 0.1 μM dipyridamole-treated cells
Excerpt: Virol. 67:651-611 (1986).

[2] = system: ridgway osteogenic sarcoma; settings: with MTX; cited from earlier work
MM-1CB cells [3] = test: Tumor growth in nude mice, treatment from 3 days after MM-1CB implantation; assay type: in vivo, human tumor cells in male athymic nude mice (BALB/cA JcL-nu); settings: combination of dipyridamole and interferon, 3 days after injection, vs each agent alone (FIG. 9)
Procedure: Male athymic nude mice (BALB/cA JcL-nu) used were 4 week old and weighed 14 to 18 g at the beginning of the experiment. All mice were given a basal diet (FR-II, Funabashi Nojo Co., Ltd., Funabashi) ad libitum.
Control animals were treated with phosphate buffered saline.
On day 62 post tumor implantation the size of each tumor was measured by caliper (two dimensions) and the measurements were converted to an approximation of tumor weight employing the formula: (a×b^2)/2, where a and b are the length and width of tumor, respectively.

interferon effect = test: Enhancement of interferon effect in vitro; assay type: cell-based
SEKI-F melanoma cells = test: Survival after continuous exposure to dipyridamole and interferon β; assay type: cell-based, human
Excerpt: Culture and the exposure conditions were the same as described in the previous manuscript.

metastasis = settings: cited from earlier work
LIZIO leukemia = settings: with MTX; cited from earlier work
[4] = system: salvage pathway of DNA synthesis; settings: cited from earlier work
[5] = system: explanted mouse peritoneal leukocytes and other cells; settings: in vitro; cited from earlier work
[6] = system: nucleoside transport through the cell membrane; settings: cited from earlier work
[7] = system: activity of N-phosphoracetyl-L-aspartate (PALA); settings: in vitro and in vivo; cited from earlier work
MM-1CB cells [8] = test: Survival of MM-1CB cells after sequential dipyridamole / interferon β treatment; assay type: cell-based, human; settings: vs simultaneous administration; cells cultured in dishes (FIG. 11)
Procedure: Experimental numbers (Exp. Nos.) 1, 2, and 3 were the results obtained under reported cell-culture-conditions. In Exp. Nos. 4 and 5, treatment with DP alone and without IFN β was done during […] of the experiment schedule, respectively. In Exp. No. 6 IFN β treatment alone, without the DP addition, was done after DP treatment alone for the first 24 hours of the experimental schedule; after the DP treatment culture medium was depleted and cells were washed three times with Eagle's minimal essential medium, followed by being cultured with medium containing IFN β.

KT cells = test: Cell proliferation inhibition test (trypan-blue exclusion), continuous exposure; assay type: cell-based, human
Excerpt: Four established cell lines were used. These were MM-1CB, derived from tissues of malignant melanoma (level IV, pT4 N0 M0) in a person (Jpn. J. Dermatol. 96:947 (1986)); KT, derived from metastatic brain tumor in a person (J. Rad. Res. 26:59 (1985) and The 44th Meeting of Japanese Cancer Association, 718 (1985)); PLC/PRF/5, derived from human hepatoma (Brit. J. Cancer 34:509-515 (1976)) and a transformed cell line RSa (Virology 135:20-29 (1984), and J. Natl. Cancer Inst. 56:919-926 (1976)).
Cells were cultured with Eagle's minimal essential medium (EMEM) containing 10% fetal bovine serum (GIBCO, U.S.A.) and antibiotics ([…] streptomycin/ml and 100 units penicillin G/ml), in an incubator at 37° C. under 5% CO2.
Other chemical agents were purchased from the Nakarai Co., Ltd., Japan.
Changes of medium with and without agents were carried out every other day. The viable cells were determined by trypan-blue exclusion test and counted with a hemocytometer. The survival percentage ratio was expressed as (counts of viable cells in test dishes per counts of viable cells in control dishes) x 100%, as described elsewhere in, e.g., Mutation Research 106:357-376 (1982) and […]. 67:651-661 (1986).
Most of experiments were carried out under a dim light or in the dark. Results were expressed as the mean of values obtained from more than two independent experiments.

## OCCN(CCO)c1nc(N2CCCCC2)c2nc(N(CCO)CCO)nc(N3CCCCC3)c2n1 [dipyridamole, 2,6-bis(diethanolamine)-4,8-dipiperidino-pyrimido[5,4-d]pyrimidin]
[1]
  levels of antiviral activity in culture medium: no detectable levels of antiviral activity
[2]
  antitumor activity of MTX: not dramatically improved
MM-1CB cells [3]
  inhibition of tumor growth: more noticeably inhibited
Interferon effect
  dose that enhances the interferon effect in vitro: less than 1 μM
SEKI-F melanoma cells; dipyridamole alone (FIG. 14)
  inhibitory effect on cell proliferation: little inhibitory effect on cell proliferation
SEKI-F melanoma cells; with interferon β 100-1000 IU/ml, 6 days (FIG. 14)
  enhancement of cell proliferation inhibition induced by interferon: can enhance cell proliferation inhibition induced by interferon
metastasis
  metastatic effect: potential metastatic effect
LIZIO leukemia
  antitumor activity of MTX: not dramatically improved
[4]
  block of the salvage pathway of DNA synthesis: effective blocker of the salvage pathway of DNA synthesis
[5]
  interferon production: induced interferon production in vitro in explanted mouse peritoneal leukocytes and other cells
[6]
  nucleoside transport: can inhibit nucleoside transport through the cell membrane
[7]
  potentiation of PALA: can potentiate the activity of N-phosphoracetyl-L-aspartate (PALA) in vitro and in vivo
MM-1CB cells [8]
  effect of dipyridamole pretreatment on proliferation: more effective than a simultaneous administration of the two agents
KT cells; HuIFN and dipyridamole (FIG. 4)
  synergistic inhibitory activity, susceptibility: high susceptibility to the synergistic inhibitory activity
KT cells; HuIFN-α with simultaneous dipyridamole (FIG. 4)
  inhibition of cell replication, combination: inhibition of cell replication was enhanced
KT cells; dipyridamole alone, less than 0.1 μM (FIG. 4B)
  influence on KT cell replication: scarcely influenced KT cell replication
KT cells; with HuIFN-α (FIG. 4B)
  concentration that enhances the inhibitory effect of HuIFN-α: less than 0.1 μM
